From patent US10004727B2, “Composition for preventing, alleviating or treating metabolic diseases, containing amodiaquine as active ingredient” (POSTECH ACADEMY—INDUSTRY FOUNDATION, priority 2015, dated 2018)

Legend:
[1] = molecular target: T1, human PPAR-γ-ligand binding domain (LBD) (Homo sapiens, UniProt P37231); experiment: GAL4-PPAR-γ-LBD luciferase reporter assay in BE(2)C cells; assay type: cell-based; settings: various concentrations up to 50 μM, 20 hours, FIGS. 1A and 1B
T1 construct: expressed in transfected cells; host or cells: BE(2)C cells
T1 sequence (P37231 238-503 limits assumed): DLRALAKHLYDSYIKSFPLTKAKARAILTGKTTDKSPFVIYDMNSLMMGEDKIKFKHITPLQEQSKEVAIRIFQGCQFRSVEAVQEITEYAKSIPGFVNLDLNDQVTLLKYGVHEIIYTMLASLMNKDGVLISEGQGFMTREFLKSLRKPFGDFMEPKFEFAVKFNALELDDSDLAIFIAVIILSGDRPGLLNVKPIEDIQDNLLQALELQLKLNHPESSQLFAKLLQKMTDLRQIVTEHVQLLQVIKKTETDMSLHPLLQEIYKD
Method: (§1) To examine whether amodiaquine serves as a ligand of PPAR-γ or PPAR-α, three types of vectors were used.
(§2) The activation of luciferase expression was detected 6 hours after BE(2)C cells were transformed with a GAL4-PPAR-γ-LBD plasmid or GAL4-PPAR-α-LBD plasmid, the GAL4-luciferase vector and the β-galactosidase vector, and growing amodiaquine-treated cells for 20 hours in a 5% CO2 incubator.

[2] = system: high fat-induced obesity mice; experiment: Intraperitoneal insulin tolerance test (IPITT) in high fat-induced obesity mice; assay type: in vivo, mouse; settings: 0.5 U/kg insulin i.p.; for blood glucose concentration after 2 hours (IPITT): HFD with simultaneous substance, FIG. 7B; for time of lowest blood glucose level (IPITT): substance given after long-term HFD induction, FIG. 7C
Method: After 16-hour fasting, 0.5 U/kg of insulin was intraperitoneally administered to each animal in the controls and the experimental group, and a blood glucose concentration was measured every 30 minutes for 2 hours. For measurement of the blood glucose concentration, an IPITT was used.

PPAR-α-LBD = molecular target: T2, PPAR-α-LBD (Homo sapiens, UniProt Q07869); experiment: GAL4-PPAR-α-LBD luciferase reporter assay in BE(2)C cells; assay type: cell-based; settings: various concentrations up to 50 μM, 20 hours, FIGS. 1C and 1D
T2 construct: expressed in transfected cells; host or cells: BE(2)C cells
T2 sequence (Q07869 239-466 limits assumed): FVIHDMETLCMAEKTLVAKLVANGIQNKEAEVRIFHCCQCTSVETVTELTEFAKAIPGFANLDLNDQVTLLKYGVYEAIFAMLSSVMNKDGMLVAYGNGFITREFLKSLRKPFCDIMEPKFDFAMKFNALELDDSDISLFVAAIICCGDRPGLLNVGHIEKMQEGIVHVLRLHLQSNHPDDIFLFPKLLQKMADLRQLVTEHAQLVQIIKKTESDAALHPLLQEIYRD
Method: as §1, §2

C2C12 myotube cells = experiment: Glucose uptake ([3H]2-DOG) evaluation test in C2C12 myotube cells; assay type: cell-based, mouse; settings: C2C12 myotubes, 10 and 30 μM amodiaquine for 24 hours, compared with 50 μM rosiglitazone; FIG. 2
Method: Phosphorylation of insulin receptors occurs due to signal transduction by insulin in muscle, adipose or liver cells, and therefore when various proteins located downstream are phosphorylated, glucose uptake increases resulting in reduced blood glucose. A glucose uptake evaluation test was performed to identify whether amodiaquine is effective in diabetes. C2C12 myoblasts, which are muscle cells, were cultured in 10% […]-containing DMEM. When the cell density reached approximately 80 to 90%, the medium was replaced with fresh 2% horse serum-containing DMEM, and cell differentiation of the C2C12 myoblasts to myotubes was induced to make them completely differentiated, followed by carrying out an experiment. […] Washing was repeated three times every twenty minutes. Subsequently, 1 ml of KRP buffer was injected, a solution (0.2 mM, 0.2 μCi) prepared by dissolving unlabeled 2-DOG and [^3H]2-DOG (Amersham Pharmacia) in KRP buffer was added at 37° C. to allow treatment for exactly 10 minutes. The resulting cells were washed with 3 ml of cold phosphate buffered saline (PBS) to stop a glucose uptake reaction, further washed twice with PBS, air-dried for approximately 1 hour, and lyzed with 1 ml of 0.1% SDS by pipetting, and then 300 μl of the lysate was obtained to detect radioactivity using a liquid scintillation counter (Perkin Elmer, USA).

KKAy mice [3] = experiment: Fasting blood glucose in KKAy mice; assay type: in vivo, mouse; settings: 18 mg/kg daily oral for 6 weeks, control 132.4 mg/dl
Method: (§3) Following one-week acclimation, 5-week-old KKAy mice purchased from Saeronbio Inc. were divided into two groups of 5.
(§4) The first group was set as a negative control by administering PBS, and the second group was treated by daily oral administration of amodiaquine at 18 mg/kg for 6 weeks.
(§5) Fasting blood glucose was measured for 6 weeks from whole blood taken from the caudal vein of each mouse 1, 2, 5 and 6 weeks after 12-hour fasting. For blood glucose measurement, a blood glucose strip (Green Cross, Gyeonggi-do, Korea) was used. […] In addition, to identify the blood glucose regulation effect, 2 g/kg of glucose was intraperitoneally injected into the mice of the control and experimental group after 16-hour fasting, and the level of blood glucose was measured every 30 minutes for 2 hours. For measurement of the blood glucose concentration, an intraperitoneal glucose tolerance test (IPGTT) was used.

KKAy mice [4] = experiment: Intraperitoneal glucose tolerance test (IPGTT) in KKAy mice; assay type: in vivo, mouse; settings: 18 mg/kg daily oral for 6 weeks, 2 g/kg glucose i.p. after 16-hour fasting, control 293.2 mg/dl
Method: as §3, §4, §5

KKAy mice [5] = experiment: Glycated hemoglobin (HbA1C) content in KKAy mice; assay type: in vivo, mouse; settings: 18 mg/kg daily oral for 6 weeks, FIG. 4
Method: To detect a change in glycated hemoglobin content in mice by amodiaquine, after 1-week acclimation, 5-week-old KKAy mice were purchased from Saeronbio Inc. were divided into two groups of 5. Like in Example 3, the first group of mice were set as a control by administering PBS, and the second group was treated by daily oral administration of amodiaquine at 18 mg/kg for 6 weeks using a 1 ml syringe. To detect an effect of amodiaquine on reducing glycated hemoglobin content, whole blood was taken from the caudal vein of each mouse in the control and experimental group, injected into an easy A1c cartridge, and then assessed using an easy A1c analyzer (Asan Pharmaceutical Co., Ltd., Seoul, Korea). An independent group t-test was performed on the experimental group and the control to identify significance in the test results, and a statistically significant difference was shown (**p<0.005).

[6] = Body weight of high fat-induced obesity mice; assay type: in vivo, mouse; settings: C57BL/6 mice, amodiaquine 20 mg/kg
Method: The mice were divided into groups of 7, freely fed water and diets in a cage, and then acclimated for 1 week before an experiment. […] [table] […] An average body weight was calculated by dividing the sum of weights of 7 mice per group by the number of mice.

[7] = system: high fat-induced obesity mouse; experiment: 4° C. cold test (thermal production) in high fat-induced obesity mice; assay type: in vivo; settings: HFD mice, 14 weeks, amodiaquine 20 mg/kg; 4° C. for up to 6 hours; versus high fat obesity-induced mouse; FIG. 6
Method: To measure a thermal production capability with respect to mice fed a high fat diet for 14 weeks among the experimental animals designed in Example 5, a 4° C. cold test was performed (Spiegelman B. M. et al., Cell 92: 829-839, 1998). Hereinafter, the measurement method will be described in detail. A body temperature of mice in the high fat-induced obesity mouse groups was measured before being exposed to 4° C. and recorded as a test start temperature, and then the mice were exposed to 4° C. for up to 6 hours, followed by measuring a body temperature. The body temperature was measured using a rectal thermometer for a mouse (testo 925, Germany) A thermal production value indicated a temperature measured every hour.

[8] = system: high fat-induced obesity mice; experiment: Oral glucose tolerance test (OGTT) in high fat-induced obesity mice; assay type: in vivo, mouse; settings: HFD mice with amodiaquine; 2 g/kg glucose oral after 16-hour fasting; HFD control 180.5 mg/dl; FIG. 7A
Method: After 16-hour fasting, 2 g/kg of glucose was orally administered to each animal in the controls and experimental group, and a blood glucose concentration was measured every 30 minutes for 2 hours. For measurement of the blood glucose concentration, an OGTT was used.

[9] = system: liver of the high fat-induced obesity mouse; experiment: Fatty liver histology (hematoxylin-eosin) in high fat-induced obesity mice; assay type: in vivo; settings: HFD with amodiaquine for 14 weeks; FIG. 8
Method: Among the experimental animals designed in Example 5, mice in the high fat-induced obesity mouse group fed a high fat diet for 14 weeks were sacrificed by cervical spine dislocation, fixed on a dissection stand, and subjected to abdominal dissection with a scalpel to extract the liver. The extracted liver tissue was fixed in a 10% formalin solution to prevent contracted deformation. After the fixed tissue was washed with running water after 24 hours, general tissue dehydration, clearing and impregnation were performed using an automatic tissue processor (6460B, Sakura, Japan) for 14 hours, and manufacture of paraffin blocks and cooling were performed using an automated embedding device (Tissue-Tex, Japan). The manufactured paraffin blocks were continuously sliced to a thickness of 4 to 5 μm in a vertical direction of the tissue using a rotary microtome 2040 (Japan), and attached to slides after processing using a water bath and a slide warming table. The thin tissue section was stained with hematoxylin, an excessively-stained part was washed with running tap water, and then the resulting section was dipped in 1% HCl and a 70% A/C solution 3 to 5 times to stain the nuclei blue. […]

PPAR-γ activity (luciferase expression) [1] | SMILES | blood glucose concentration after 2 hours (IPITT) [2] | PPAR-α activity (luciferase expression) (PPAR-α-LBD) | time of lowest blood glucose level (IPITT) [2] [min] | other results
PPAR-γ activity was not shown | Cc1cccc(Nc2cc(Cl)nc(SCC(=O)O)n2)c1C [WY-14,643] | maintained lower than the fasting blood glucose concentration |  |  | 
PPAR-γ activity was not shown | CCN(CC)CCCC(C)Nc1ccnc2cc(Cl)ccc12 (stereo not drawn) [chloroquine, 7-chloro-4-(4-diethylamino-1-methylbutylamino)quinoline] |  | did not show the PPAR-α activity |  | 
 | CN(CCOc1ccc(CC2SC(=O)NC2=O)cc1)c1ccccn1 (stereo not drawn) [rosiglitazone] |  |  | 60 | 

SMILES | PPAR-γ activity (luciferase expression) [1] | blood glucose concentration after 2 hours (IPITT) [2] | PPAR-α activity (luciferase expression) (PPAR-α-LBD) | time of lowest blood glucose level (IPITT) [2] [min] | other results
CCN(CC)Cc1cc(Nc2ccnc3cc(Cl)ccc23)ccc1O [amodiaquine, 4-[(7-chloroquinolin-4-yl)amino]-2-[(diethylamino)methyl]phenol] | higher concentration-dependent PPAR-γ activity | maintained lower than the fasting blood glucose concentration | high concentration-dependent PPAR-α activity | 30 | glucose uptake (C2C12 myotube cells): further increased than that in the rosiglitazone-treated group; fasting blood glucose concentration (KKAy mice [3]): 100.2 mg/dL; blood glucose concentration 2 hours after glucose loading (IPGTT) (KKAy mice [4]): 207 mg/dL; production of glycated hemoglobin relative to the control mice (KKAy mice [5]): ~69%; body weight versus high fat-induced obesity mouse (prevention) ([6]; HFD with substance for 14 weeks, FIG. 5A): significantly lower than that of the high fat-induced obesity mouse; body weight versus high fat-induced obesity mouse (treatment) ([6]; substance for 7 weeks after 15-week HFD induction, rosiglitazone 50 mg/kg, FIG. 5C): significantly lower than that of the high fat-induced obesity mouse; body temperature on exposure to 4° C. (thermal production) [7]: less decreased in body temperature; blood glucose concentration 2 hours after glucose loading (OGTT) [8]: 139.1 mg/dL; liver appearance (fat accumulation, hematoxylin-eosin) [9]: almost the same appearance as that of a normal mouse
